From PMC4414571, “Peptides of Presenilin-1 Bind the Amyloid Precursor Protein Ectodomain and Offer a Novel and Specific Therapeutic Approach to Reduce ß-Amyloid in Alzheimer’s Disease” (PLoS ONE, 2015)
Entries after “also recorded” stand apart in the source; their conditions may differ. Like-named read-outs stand apart in the source and are kept apart here. Ends that are not written are not given here.

Legend:
[1] = test system: NICD / γ-secretase in Jurkat cells; test: NICD levels in extracts of Jurkat cells by ELISA (γ-secretase activity); settings: 24 h, percent control
Method: Jurkat cells (Sigma) were cultured in RPMI 1640 medium supplemented with 10% FCS, 2 mM L-glutamine, penicillin and streptomycin at 37°C in the presence of 5% CO2. […] After harvesting the cells, extracts were prepared by sonication in lysis buffer (Cell Signaling Technologies) supplemented with 1mM PMSF and complete protease inhibitor cocktail (Roche). The solubilized extracts were then used in ELISA assays to determine NICD levels, as a measure of γ-secretase activity, using the PathScan Cleaved Notch 1 (Val 1744) sandwich ELISA kit (Cell Signaling Technologies) according to the manufactuer’s protocols.

[2] = target: T1, soluble ectodomain of APP (APPs, APP 695) (Homo sapiens, UniProt P05067); test: Biolayer interferometry, biotinylated peptides on streptavidin biosensors vs purified soluble APP (APPs); format: binding; settings: 30°C, biotinylated peptide on SA biosensors; for koff / kon / Kd: 1:1 model; for Kd: k off/k on, Kinetics Buffer (1X PBS, 0.002% Tween-20, 0.01% BSA)
T1 construct: host or cells: Sf9 insect cells (baculovirus), conditioned medium
Method: Sf9 cells (ATCC CRL 1711) were grown in TMN-FH complete medium (Pharmingen) in suspension and infected at a multiplicity of infection of 2 with a titred stock of recombinant virus expressing human APP695. Conditioned media and/or cells were harvested 6 days after infection. Cells and debris were removed by centrifugation (at 1000 x g for 15 min).
Recombinant baculoviruses were produced according to published protocols. A fragment containing full-length APP 695 was subcloned into the baculovirus transfer vector pBlueBac3 (Invitrogen). The resulting recombinant vector was co-transfected with baculovirus DNA into sf9 cells. Recombinant APP expression was verified by Western blot hybridization using mouse MAb against human APP (Cat # MAB348, Millipore).
APPs was purified from baculovirus conditioned medium to >95% purity, as assessed by densitometry analysis of Coomassie stained SDS PAGE gels, by Arvys Proteins, Stamford, CT, using the following strategy. The conditioned medium proteins were purified by heparin-affinity chromatography, followed by two gel filtration chromatography steps over HiPrep Sephacryl S300 columns and two steps of anion exchange chromatography on HiTrapQ columns.
The binding affinities of peptides P1, scrambled P1, P4, P5, P7 and P8 for the soluble ectodomain of APP or control IgG were measured by biolayer interferometry on an Octet RED96 System (Pall FortéBio Corp., Menlo Park, CA). This system monitors interference of light reflected from two sources (an internal reflection surface and the liquid/solid interface of a fiber optic sensor) to measure the rate of binding of molecules to the biosensor surface.
Peptides were synthesized and biotinylated at the NH2-terminus by Dr. Michael Freydkin at Biopeptides, Inc., San Diego, CA, and purified to >95% by HPLC. Biotinylated peptides were loaded onto Streptavidin (SA) biosensors (Pall FortéBio Corp.) at empirically determined concentrations. All affinity measurements were carried out in Kinetics Buffer (KB) (1X PBS, 0.002% Tween-20, and 0.01% BSA) at 30°C. Typically, the biosensors were pre-equilibrated in KB for 120s, loaded with a biotinylated peptide at optimal concentrations and times, quenched with 10 μg/ml biocytin in KB for 180s, brought to baseline in KB for 120s and transferred to wells containing purified APPs (0–200 nM). Multiple negative controls were run for each peptide including association buffer only (no APP) or with IgG replacing APP. Binding kinetics were calculated using the FortéBio Data Analysis v7.1 software. The association (k on) and dissociation (k off) rate constants were obtained by fitting the association and dissociation data to a 1:1 model. Binding affinity, KD, was calculated as k off/k on.

[3] = test system: Aβ production in cell cultures; settings: cells cultured in media containing excess of the FLAG-coupled NH2-terminal domain of PS-1 (residues 1–80), ref [13], cited from earlier work
Text: In that work we had selected the NH2-t ... || Peptide P1, comprising the first 80 amino acids of PS-1, scrambled P1 and the two large oligopeptides corresponding to the two halves of the human P1 (peptides P2 and P3, Table 1), were first synthesized and tested in vitro for their effect on the production of Aβ40 and 42.

[4] = test system: IMR-32 human neuroblastoma cell-line (endogenous Aβ40 or 42 production); test: Endogenous Aβ40 and 42 production in IMR-32 culture medium by ELISA; format: cell-based; settings: for Effect on Aβ40 and 42 production in vitro (in words): 0–5 μM peptide, 24 h, IMR-32 culture medium, ELISA; for Production of total Aβ and of Aβ 40 and 42 (summary in words): Discussion summary, stated as in vitro and in vivo (mThy1-hAPP Tg mice)
Method: A human neuroblastoma cell-line, IMR-32 (ATCC CCL-127) was cultured in MEM Earles medium containing 10% fetal bovine serum, 2 mM L-glutamine in the presence of penicillin and streptomycin. Equal numbers of cells (0.3 x 10^6 per well) were plated on 6-well plates overnight. Peptides (0–5 μM) were added to fresh culture medium (500 μl per well) and left in the incubator for 24 hours, after which the culture medium from each well was removed and stored at -80°C in the presence of 4-(2-Aminoethyl) benzenesulfonyl fluoride hydrochloride (AEBSF) and protease inhibitors. Prior to use, the culture medium was centrifuged in an eppendorf microfuge for 5 min at 4°C, the supernatant diluted with an equal volume of sample diluent buffer (Wako) and analyzed for the presence of Aβ40 or 42 using a commercial ELISA kit (Wako).

[5] = test system: Aβ deposits in mThy1-hAPP transgenic mice; test: Plaque load / Aβ immunolabeling in brain sections of mThy1-hAPP Tg mice after intraventricular peptide infusion; format: in vivo, mouse; settings: 10 μM in PBS, two weeks infusion then two weeks rest, vs PBS controls
Method: These mice express mutated (London V717I and Swedish K670M/N671L) hAPP751 under the control of the neuronal murine (m)Thy-1 promoter. […] The Tg lines were maintained by crossing heterozygous Tg mice with non-Tg wild type C57BL/6 x DBA/2 F1 breeders. All animal studies were carried out according to protocols approved by the Institutional Animal Care and Use Committee of the University of California San Diego. […]
For analysis of Aβ deposits, blind-coded 40 μm vibratome sections were immunolabeled as previously described with mouse monoclonal antibodies (MAb) against human Aβ (clone 82E1, prepared against Aβ 1–16) followed by incubation with fluorescein isothiocyanate (FITC)-conjugated anti-mouse IgG (Vector Laboratories). Sections were imaged with a laser scanning confocal microscope (MRC1024, BioRad) as described and digital images were analyzed with the NIH Image 1.43 program to determine the percent area occupied by Aβ deposits. Three immunolabeled sections were analyzed per mouse and the average of individual measurements was used to calculate group means. […]

[6] = test system: Aβ 1–40 and 1–42 in mThy1-hAPP mouse brains; test: Aβ40- and Aβ42-specific ELISA of neocortex extracts of peptide-treated mThy1-hAPP mice; format: in vivo; settings: vs PBS, 10 μM peptide infusion, two weeks then two weeks rest
Method: These mice express mutated (London V717I and Swedish K670M/N671L) hAPP751 under the control of the neuronal murine (m)Thy-1 promoter. […] The Tg lines were maintained by crossing heterozygous Tg mice with non-Tg wild type C57BL/6 x DBA/2 F1 breeders. All animal studies were carried out according to protocols approved by the Institutional Animal Care and Use Committee of the University of California San Diego.
Age-matched male and female mThy1-hAPP Tg mice at 6 months of age were anesthetized and under sterile conditions, a 26 gauge stainless steel cannula (Alzet Brain Infusion kit 3, Durect Corp) was stereotaxically implanted into the right ventricle using the following coordinates: –1 mm using Bregma as a reference, lateral, 1.0 mm, depth, -3.0 mm, and secured to the cranium using superglue. The cannula was connected via a 5 mm coil of V3 Biolab vinyl tubing to a model 1002 osmotic minipump (Alzet, Durect Corp) surgically placed subcutaneously beneath the shoulder blades and surgically closed. The solutions (each peptide at 10 μM in PBS) were delivered directly into lateral ventricles at a flow rate of 0.25 μl per hour (100 μl total volume) for two weeks. […]
Samples from mouse cortex and hippocampus were homogenized in ice-cold, 6 M guanidine-HCl according to published protocols. Quantification of Aβ 1–40 and 1–42 was carried out by ELISA kits (Invitrogen). […]

[7] = test system: NICD (γ-secretase activity); test: NICD levels in neocortex of treated mThy1-hAPP mice by Western blot (γ-secretase activity); format: in vivo, mouse; settings: peptide-infused mThy1-hAPP mice vs PBS, n = 5, two weeks after end of treatment
Method: Extracts of neocortex of mThy1-hAPP mice treated with P4, P8 or PBS only were electrophoresed on SDS gels and Western blotted with primary rabbit antibodies against NICD (Cat# 07–1232, Millipore) at 4°C overnight, followed by horse-radish peroxidase (HRP)-conjugated goat anti-rabbit IgG (Bio-Rad). The immunoreactive bands were detected by chemiluminescence (Thermo Scientific).
An optimal therapeutic approach to AD would avoid producing serious effects on other biochemically and physiologically important processes, as would occur if the cleavages of any of the other substrates of β- or γ-secretase were affected in the process of reducing the levels of Aβ. An especially well-studied example is the γ-secretase activity of PS-1 that is critically involved in the final enzymatic cleavage of Aβ from APP; it also functions in an essential developmental process that generates NICD from Notch. […] At the same time we analyzed the same tissue samples for their β-secretase (BACE-1) activity and APP expression. Extracts were prepared of the neocortex of Tg mice that had been treated with P4, P8 or PBS, and the levels of NICD were determined by Western blot analysis with a primary rabbit Ab against NICD. […]

T1 sequence (P05067 18-612 isoform P05067-4 limits assumed): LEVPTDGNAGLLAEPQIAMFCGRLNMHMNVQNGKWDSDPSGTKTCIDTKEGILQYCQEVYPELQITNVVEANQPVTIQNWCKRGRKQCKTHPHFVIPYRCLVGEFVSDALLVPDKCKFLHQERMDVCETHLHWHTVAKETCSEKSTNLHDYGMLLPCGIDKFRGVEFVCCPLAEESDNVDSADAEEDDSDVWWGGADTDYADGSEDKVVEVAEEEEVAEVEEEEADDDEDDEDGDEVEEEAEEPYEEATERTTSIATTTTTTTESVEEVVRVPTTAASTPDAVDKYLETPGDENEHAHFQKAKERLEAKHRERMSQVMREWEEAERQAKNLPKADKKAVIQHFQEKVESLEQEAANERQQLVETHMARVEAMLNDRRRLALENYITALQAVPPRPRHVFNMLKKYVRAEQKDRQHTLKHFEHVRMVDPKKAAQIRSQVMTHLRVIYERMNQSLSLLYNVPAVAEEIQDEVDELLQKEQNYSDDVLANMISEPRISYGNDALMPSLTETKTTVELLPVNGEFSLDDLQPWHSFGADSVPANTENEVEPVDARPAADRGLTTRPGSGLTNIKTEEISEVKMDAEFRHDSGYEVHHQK

## CC(C)[C@H](O)C(=O)N[C@@H](C)C(=O)N[C@@H]1C(=O)N(C)CCc2ccccc21 [Semagacestat, reference compound]
[1]; 0–100 nM, n = 2
  NICD levels in Jurkat cells, γ-secretase inhibitor (in words): inhibited in a dose-dependent manner

## DEEEDEELTLKYGAK [Peptide P7]
[2]; Kinetics Buffer
  koff: 0.00105 s⁻¹
  kon: 104000 M⁻¹ s⁻¹
[2]
  Kd: 10.1 nM

## FLAG-PS-1 (residues1-80): bacterially produced FLAG-PS-1 (residues1-80)
[3]
  Aβ production (in words): robust inhibition of Aβ
[3]; listed as NH2-terminal domain of PS-1 (residues 1–80) coupled to the FLAG protein
  Aβ production (in words): markedly inhibited

## PEPLSNGRP [Peptide P10, residues 47–55 of PS-1, fragment of P4]
[4]
  Effect on Aβ40 and 42 production in vitro (in words): did not give a significant reduction in Aβ in vitro; also recorded: had not shown a reduction of Aβ in vitro
[5]
  Aβ immunolabeling / Aβ load in mouse brain (in words): less effective but still produced statistically significant reductions in Aβ levels compared to PBS controls in the neocortex
[6]
  Aβ40/42 in neocortex extracts by ELISA (in words): gave reductions in Aβ load, but to a lesser extent

## RQVVEQDEEEDEELT [Peptide P6, residues 60–74 of PS-1]
[4]
  Effect on Aβ40 and 42 production in vitro (in words): substantial dose-dependent reduction in Aβ40 and 42
  Production of total Aβ and of Aβ 40 and 42 (summary in words): markedly reducing the production of total Aβ and of Aβ 40 and 42 in vitro and in vivo

## RRSLGH [Peptide P9, residues 41–46 of PS-1, fragment of P4]
[4]
  Effect on Aβ40 and 42 production in vitro (in words): did not give a significant reduction in Aβ in vitro; also recorded: had not shown a reduction of Aβ in vitro
[5]
  Aβ immunolabeling / Aβ load in mouse brain (in words): less effective but still produced statistically significant reductions in Aβ levels compared to PBS controls in the neocortex
[6]
  Aβ40/42 in neocortex extracts by ELISA (in words): gave reductions in Aβ load, but to a lesser extent

## RRSLGHPEPLSNGRP [Peptide P4]
[2]; Kinetics Buffer
  koff: 0.00134 s⁻¹
  kon: 83600 M⁻¹ s⁻¹
[2]
  Kd: 16.1 nM
[7]
  NICD levels in neocortex (in words): not accompanied by any significant changes in the levels of NICD
[1]; 0–10 μM, 450 nm, n = 2–3
  NICD levels in Jurkat cells, peptides (in words): no appreciable change in the levels of NICD

## SNGRPQGNSRQVVEQ [Peptide P5, residues 51–65 of PS-1]
[4]
  Effect on Aβ40 and 42 production in vitro (in words): no significant effect on Aβ production
  Production of total Aβ and of Aβ 40 and 42 (summary in words): did not reduce Aβ
[2]; Kinetics Buffer
  Binding to purified APPs (in words): no significant binding to APP
